Measurements taken from US6750025B1 (priority 1998, dated 2004).
Entries after “also recorded” stand apart in the source; their conditions may differ.

What was measured:
[1] = target: Streptavidin (Streptomyces avidinii, UniProt P22629); conditions: cited from earlier work
[2] = target: streptavidin binding to the prion protein (Streptomyces avidinii, UniProt P22629)
[3] = target: T1, streptavidin binding to Gly-Tyr-Gly-Gln-Pro-His-Gly-Gly sequence attached to resin A (Streptomyces avidinii, UniProt P22629)
T1 construct: purchased Sigma (streptavidin-phosphatase); Commonwealth Biotechnologies Inc. (peptide resin)
T1 sequence (P22629 25-183): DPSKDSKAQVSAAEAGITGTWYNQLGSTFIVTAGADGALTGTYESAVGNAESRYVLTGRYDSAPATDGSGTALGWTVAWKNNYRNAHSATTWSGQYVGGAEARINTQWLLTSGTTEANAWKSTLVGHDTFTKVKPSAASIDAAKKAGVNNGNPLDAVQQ

Chain of streptavidin binding to the prion protein (P22629 25-183 limits assumed): as the sequence (P22629 25-183) above
Chain of Streptavidin (P22629 25-183): as above

**Q.** For `O=C(O)CCCC[C@@H]1SC[C@@H]2NC(=O)N[C@@H]21` [D-biotin], which “affinity of streptavidin to biotin” value [1] is on record?
**A.** The value was ~10^15.

**Q.** And the “competition with the production of signal” value ([2]; D-biotin added after binding of streptavidin to the proteins)?
**A.** The value was “did not compete with the production of signal”.

**Q.** What about the “inhibition of banding at 30-34 kDa” value ([2]; streptavidin-phosphatase mixed with 10 μM D-biotin prior to addition to the Western blot) of the same compound?
**A.** Its value is “completely inhibited”.

**Q.** And the “phosphatase activity in flow through of resin A after biotin pre-incubation” value [3]?
**A.** Its value is “significant phosphatase activity; also recorded: found in the first few column volumes”.
